From US20230357312A1, “Borylated Di-Peptide Amino Acid compositions for use in Boron Neutron Capture Therapy and methods thereof” (TAE Life Sciences, priority 2021, published 2023)
Entries after “also recorded” stand apart in the source; their conditions may differ.

Experiments:
FaDu subcutaneous tumors = assay: Biodistribution of His-BPA, FaDu tumors in vivo; parameters: species or system female CB17 SCID mice; settings: His-BPA 4X higher dose than BPA-F
Method: In this experiment, biodistribution of His-BPA was evaluated in vivo using the following protocols. All animal studies were carried out following the “Guide for the Care and Use the Laboratory Animals,” 8th Ed. and Animal Welfare Act (USDA). Human hypopharyngeal squamous cell carcinoma FaDu cells were maintained in DMEM, supplemented with L-glutamine and 10% FBS.
Subcutaneous (s.c.) tumors were generated by injection of 2.5 × 10^6 cancer cells mixed at a 1:1 dilution with Matrigel (Corning Life Sciences) in the right flank of female CB17 SCID mice. Tumor sizes were determined by caliper measurements, and the tumor volume was calculated as width^2×Length/2, wherein width is the smallest dimension and length is the largest dimension. Tumors were allowed to grow untreated until they reached an approximate volume of 300 mm^3. At that point, animals were randomized and allocated to each treatment group based on tumor volume at the time of treatment initiation to ensure similar mean tumor size and variation in each group. Each group received a single dose of BPA at […] or a test article at […] via intravenous tail vein injection. […]
Furthermore, all compounds tested, with the exception of BPA were prepared as 80-100 mg/mL stocks. […] The digested tissues were analyzed by ICP OES to determine the boron concentration.

[1] = tested on: FaDu, Detroit-562, MeWo, HCC-1954, A549 and AsPC-1 human cancer xenograft models; assay: Dose escalation of boron delivery, all tested xenograft models; assay type: in vivo, CB17 SCID mice; settings: 1000 mg/kg, 120 minutes
Method: Tumors were harvested 120 minutes following treatment and boron content determined by ICP-OES. Data are the means ± SD of 5 mice per treatment group.

FaDu cells = assay: Uptake inhibition by PEPT1 competitive inhibitor Gly-SAR; assay type: cell-based, human
Method: (§1) In this experiment, uptake of BPA and dipeptide His-BPA (0.8 mM of each) was carried out in FaDu and ASPC-1 in the presence and absence of the indicated concentrations of PEPT1 dipeptide transporter competitive inhibitor Gly-SAR. Normalized boron uptake was determined as in FIG. 15.

AsPC-1 cells [2] = assay: as above; assay type: cell-based, human; settings: 0.8 mM test compound, with and without Gly-SAR
Method: as §1

AsPC-1 cells [3] = assay: Uptake of BPA and dipeptides in PEPT1 high expressing cells; assay type: cell-based, human; settings: PEPT1 high expressing AsPC1 cells
Method: The indicated cancer cell line (A) or FaDu cells (B) were harvested from culture and washed twice with PBS. Cell lines were adjusted to 2 million cells/ml in Hanks Balanced Salt Solution (HBSS). BPA or dipeptide boron compounds were added to cells at the final concentration of 2.5 mM in HBSS and the treated cells were incubated at 37° C. 5% CO2 for 2 hrs with shaking. The cells were collected by centrifugation; washed with cold PBS twice and reconstituted in 1 ml of cold PBS. Then, 50 µl of cell suspension was removed, pelleted, and lysed using RIPA buffer and the protein concentration was determined using BCA assay. The remaining 950 µl was used for boron compounds uptake measurements using ICP-OES.
To this end, 0.5 mL of concentrated nitric acid was added to each cell pellet in a 15 mL conical tube. The tubes were capped and placed in an oven set at 80° C. for 3 hours. […] The boron content in each sample was then measured on an Agilent 5110 ICP-OES using an Agilent SPS4 Autosampler for sample introduction.
The data was analyzed using Agilent’s ICP Expert Software, version 7.4.2.10790. Boron was measured axially at the 249.772 nm wavelength and the internal standard Beryllium was measured axially at the 313.042 nm wavelength. […] Once determined, the boron measurement for each sample was normalized to protein content and final boron uptake results were expressed as ng boron/mg protein. […]

Solubility = assay type: physicochemical
CT26 xenografts [4] = assay: BNCT study, 12 or 6 minute irradiation at 5 MW; assay type: in vivo, BALB/c mice; settings: 800 mg/kg, 12 minutes irradiation at 5 MW, monitored to 22 days
Method: Following one (1) hour of treatment time, mice were irradiated for either 12 minutes (33(A)) or 6 minutes (33(B)) at the Kyoto University Research Reactor (Kyoto, Japan) 1 set at 5 megawatts. Data are the means ± SD of 3 mice per treatment group. Tumors were measured for growth out to 22 days.

CT26 xenografts [5] = assay: BNCT tumor regression study, 6 minute irradiation; assay type: in vivo, BALB/c mice; settings: 900 mg/kg, 6 minutes irradiation
Method: In this experiment, CT26 xenografts in BALB/c mice were dosed with 400 mg/kg of BPA or 900 mg/kg of His-BPA or BPA-BPA. Following one (1) hour treatment time, mice were irradiated for 6 minutes at the Kyoto University Research Reactor (Kyoto, Japan) 1 set at 5 megawatts. Data are the means ± SD of 3 mice per treatment group. Tumors were measured for growth out to 36 days and examined for tumor presence at 40 days. BPA and control groups were sacrificed at day 18 due to excessive tumor growth.

Compound: N[C@@H](Cc1c[nH]cn1)C(=O)N[C@@H](Cc1ccc(B(O)O)cc1)C(=O)O [His-BPA, Histidine-BPA]
- boron in the kidneys and pancreas compared to BPA-F (FaDu subcutaneous tumors): Significantly higher amounts of boron
- tumor boron compared to BPA at 200 mg/kg [1]: higher boron levels
- boron signal in PEPT1 negative FaDu cells (FaDu cells; 0.8 mM): does deliver a boron signal
- effect of Gly-SAR on boron uptake (FaDu cells; 0.8 mM test compound, with and without Gly-SAR): no effect
- effect of Gly-SAR on boron uptake (AsPC-1 cells [2]): dose dependent inhibitory effect
- boron uptake compared to BPA (AsPC-1 cells [3]): to a higher level than BPA
- solubility (in words, compared to BPA) (Solubility): high solubility; also recorded: improved solubility
- tumor growth after BNCT (CT26 xenografts [4]): significant and similar growth inhibition, even regression
- visual inspection and histological examination of the tumor area (CT26 xenografts [5]; one treated mouse): lack of tumor tissue and only scar tissue at the original tumor site
- tumor growth after BNCT (CT26 xenografts [5]; sustained out to 36 days): significant tumor regression
